Legend:
[1] = test system: Integrated Stress Response; assay: UL148-GFP visual probe for ISR inhibition in living cells; format: cell-based; settings: ARPE-19 cells, UL148-GFP induced 18 hours with 100 ng/mL doxycycline hyclate; 200 nM ISRIB in FIG. 2B
Excerpt: The disclosed technology is based on UL148, a viral endoplasmic reticulum (ER)-resident protein, which influences the expression of a viral glycoprotein complex required for cell entry. UL148 activates the Unfolded Protein Response (UPR), resulting in stress-regulated translation of ISR mRNAs such as ATF4. ISR/UPR activation by UL148 causes the formation of large membranous structures from the ER, at which UL148 itself accumulates. […] Other fluorescent proteins may include Allophycocyanin, Brainbow, Cameleon, FMN-binding fluorescent protein, Glutamate-sensitive fluorescent reporter, MCherry, Phycoerythrin, Red fluorescent protein, RoGFP, SmURFP, Synapto-pHluorin, and Yellow fluorescent protein. […] Instead, treatment with an ISR-inhibitor (e.g., ISRIB) causes UL148-GFP to be evenly distributed across the ER such that the GFP staining is uniform and reticular. Therefore, the simple task of determining whether GFP signal is present and whether it is uniform or punctate provides a facile read-out that can be automated to enable high throughput screening for novel small molecule inhibitors that inhibit the ISR.
ARPE-19 epithelial cells carrying a doxycycline inducible gene expression cassette encoding UL148-GFP were treated for 18 hours with 100 ng/mL doxycycline hyclate to induce UL148-GFP expression. In panel A, (FIG. 2A) UL148-GFP was induced in the absence of ISRIB. […]

PERK = assay: Western blot for PERK activation in stably transduced ARPE-19 cells; format: cell-based; settings: 200 nM Tg, 4 h
IRE1 [2] = assay: Western blot for phospho-IRE1 (Ser724) in fibroblasts; format: cell-based, human; settings: Tg-treated fibroblast lysates vs mock-treated, noninfected cells
IRE1 [3] = assay: Xbp-1 splicing assay (RT-PCR) in HEK-293T cells; format: cell-based, human; settings: 1 mM DTT, 2 h
[4] = test system: protein synthesis (mRNA translation) in ARPE-19 cells; assay: Metabolic labeling (35S Met/Cys incorporation) in i148HA and i159HA ARPE-19 cells; format: cell-based; settings: 24 h Dox induction, 30 min 35S Met/Cys pulse, phosphorimager analysis
Protocol: Having isolated stably transduced ARPE-19 cell populations, the inventors confirmed that that anti-HA immunoreactive polypeptides of the expected size for UL148 (i148^HA) or Rh159 (i159^HA) were induced upon treatment with 100 ng/ml doxycycline (Dox). Furthermore, expression of neither protein caused any overt reduction in cell viability or number, as measured by trypan blue exclusion following 24 h of Dox induction. The inventors therefore concluded that the i148^HA and i159^HA ARPE-19 cells were suitable to address whether UL148 might affect rates of mRNA translation in metabolic labeling studies. For these experiments, i148^HA and i159^HA cells were induced (or mock induced) for transgene expression for 24 h and then incubated in the presence of ^35S-labeled methionine and cysteine for 30 min. In parallel, labeling was also carried out using i159^HA cells that were incubated in the presence of either thapsigargin (Tg) or carrier alone, so as to provide positive and negative controls, respectively, for UPR induction.
Metabolic labeling. i159^HA or i148^HA cells were seeded at 2×10^5 cells per well in a 24-well cluster plate in Gibco Opti-MEM reduced serum medium (Thermo Fisher) supplemented with 2.5% tetracycline (Tet)-free FBS (Clontech 631101). […] The relative signal per lane was calculated using Bio-Rad 1-D analysis software by reading the signal volume (counts·mm^2) in each lane. […]

`O=C(COc1ccc(Cl)cc1)NC1CCC(NC(=O)COc2ccc(Cl)cc2)CC1` (centres unmarked) [ISRIB] was tested, and the “formation of UL148 structures” value [1] was “completely blocks the formation of UL148 structures”.

With `C/C=C(/C)C(=O)O[C@H]1C(C)=C2[C@H]([C@@H]1OC(=O)CCCCCCC)[C@@](C)(OC(C)=O)C[C@H](OC(=O)CCC)[C@@]1(O)[C@H]2OC(=O)[C@@]1(C)O` [Tg, thapsigargin] the “decreased mobility of the anti-PERK immunoreactive band (PERK autophosphorylation)” value (PERK) was “readily observed” and the phospho-IRE1 signal (IRE1 [2]) was “robust phospho-IRE1 signal”.

For `O[C@H](CS)[C@H](O)CS` (racemic) [DTT, dithiothreitol], the “splicing of the 26-nt intron from Xbp-1 mRNA” value (IRE1 [3]) was “spliced from nearly all the Xbp-1 mRNA”.

B1: UL148: viral ER-resident glycoprotein from human cytomegalovirus, ectopically expressed with a C-terminal HA tag (protein, UniProt F5H8Q3 21-316, looked up)
Membrane protein UL148: SRDYVHVRLLSYRGDPLVFKHTFSGVRRPFTELGWAACRDWDSMHCTPFWSTDLEQMTDSVRRYSTVSPGKEVTLQLHGNQTVQPSFLSFTCRLQLEPVVENVGLYVAYVVNDGERPQQFFTPQVDVVRFALYLETLSRIVEPLESGRLTVEFDTPDLALAPDLVSSLFVAGHGETDFYMNWTLRRSQTHYLEEMALQVEILKPRGVRHRAIIHHPKLQPGVGLWIDFCVYRYNARLTRGYVRYTLSPKARLPAKAEGWLVSLDRFIVQYLNTLLITMMAAIWARVLITYLVSRRR
modifications: C-terminal HA tag
In the case of B1, the “decrease in protein synthesis compared to carrier-alone control” value [4] is reported as ~50%.
